Counter-ions that a name gives are not always drawn. The source made the active and inactive calls.
Assays:
Beta-galactosidase = Beta-galactosidase (Escherichia coli, UniProt Q8VNN2); assay: PubChem AID 485352; type: functional
[1] = growth suppression of PTEN-null colon cells, dose response, cell-based, HCT116 PTEN knockout (AID 1047); type: functional;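 also: HCT116 colon tumor cells with PTEN knocked out; cells exposed to compound for 60 hours before readout; potency for loss of cell viability measured by luminescence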
[2] = molecular target: Heat shock protein HSP 90-alpha (Homo sapiens, UniProt P07900); type: functional, organism-based
[3] = growth suppression of beta-catenin-knockout colon cells, dose response, cell-based, HCT116, human colon tumor (AID 1045); type: functional;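 also: HCT116 colon tumor cells with beta catenin knocked out; cells exposed to compound for 60 hours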
[4] = molecular target: Glucose-6-phosphate 1-dehydrogenase (Homo sapiens, UniProt P11413); assay: human G6PD enzyme inhibitors, dose response, selectivity assay for P. falciparum G6PD inhibitor project, biochemical, fluorescence (AID 504792); type: functional
[5] = molecular target: Bifunctional protein GlmU (Mycobacterium tuberculosis, UniProt P9WMN3); assay: Inhibitors of Mycobacterial Glucosamine-1-phosphate acetyl transferase (GlmU). Secondary screen.; design: species or system Mycobacterium tuberculosis H37Rv
Large T antigen = Large T antigen (Simian virus 40, UniProt P03070); type: functional, Betapolyomavirus macacae;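 also: Confirmatory-stage PubChem screen for compounds that inhibit SV40 T antigen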
Vero = assay: cells; type: functional; conditions: Chlorocebus sabaeus
[6] = C. albicans growth with fluconazole, confirmation, fluorescence, retest (AID 2467); type: functional, cell-based
[7] = NIH-3T3 fibroblast cytotoxicity, dose response, cytotoxicity control, cell-based, fluorescence, Alamar Blue, secondary assay (AID 2327); type: functional;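 also: NIH-3T3 mouse fibroblasts cultured with fluconazole at 8 µg/mL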
[8] = molecular target: T1, Type-1 angiotensin II receptor (Homo sapiens, UniProt P30556); assay: AT1 receptor antagonists, dose response, selectivity assay for APJ receptor antagonist project, cell-based, uHTS hits (AID 463214); type: functional;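 also: antagonist potency against angiotensin II stimulated AT1 response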
T1 sequence (P30556 whole entry): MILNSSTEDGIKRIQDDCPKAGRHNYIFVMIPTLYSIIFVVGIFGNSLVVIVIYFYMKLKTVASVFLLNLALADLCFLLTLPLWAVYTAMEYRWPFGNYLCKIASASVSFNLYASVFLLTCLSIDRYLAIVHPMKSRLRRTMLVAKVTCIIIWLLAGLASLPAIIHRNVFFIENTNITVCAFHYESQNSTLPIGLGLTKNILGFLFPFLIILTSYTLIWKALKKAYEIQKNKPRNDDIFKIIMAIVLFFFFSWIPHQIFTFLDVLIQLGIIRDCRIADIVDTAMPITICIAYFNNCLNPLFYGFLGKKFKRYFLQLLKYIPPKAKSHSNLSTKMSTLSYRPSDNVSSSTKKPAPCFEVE

[9] = half-maximal inhibitory concentration for glucagon-like peptide-1 release, STC-1 cell line, dose-response (AID 1117345); type: functional, cell-based
[10] = Glucagon-like peptide 1 release potency, NCI-H716 cell line, dose-response, half-maximal inhibitory concentration (AID 1117344); type: functional, cell-based
[11] = Dose-response inhibition of insulin secretion in a rat insulinoma line at 5 mM glucose (AID 1117331); type: functional, cell-based; conditions: INS-1E
Nonstructural protein 1 = Nonstructural protein 1 (Influenza A virus, UniProt Q194T2); type: functional, Influenza A virus (A/California/07/2009(H1N1))
Protein Tat = Protein Tat (Human immunodeficiency virus type 1 group M subtype B (isolate HXB2)(HIV-1), UniProt P04608); type: functional;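 also: tat binding to TAR RNA read out by fluorescence polarization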
[12] = molecular target: T2, Rac GTPase-activating protein 1 (Homo sapiens, UniProt Q9H0H5); assay: MgcRacGAP GTPase-activating activity inhibitors, confirmation, biochemical, ADP Hunter fluorescence, primary and confirmatory (AID 624330); type: functional
T2 sequence (Q9H0H5 whole entry): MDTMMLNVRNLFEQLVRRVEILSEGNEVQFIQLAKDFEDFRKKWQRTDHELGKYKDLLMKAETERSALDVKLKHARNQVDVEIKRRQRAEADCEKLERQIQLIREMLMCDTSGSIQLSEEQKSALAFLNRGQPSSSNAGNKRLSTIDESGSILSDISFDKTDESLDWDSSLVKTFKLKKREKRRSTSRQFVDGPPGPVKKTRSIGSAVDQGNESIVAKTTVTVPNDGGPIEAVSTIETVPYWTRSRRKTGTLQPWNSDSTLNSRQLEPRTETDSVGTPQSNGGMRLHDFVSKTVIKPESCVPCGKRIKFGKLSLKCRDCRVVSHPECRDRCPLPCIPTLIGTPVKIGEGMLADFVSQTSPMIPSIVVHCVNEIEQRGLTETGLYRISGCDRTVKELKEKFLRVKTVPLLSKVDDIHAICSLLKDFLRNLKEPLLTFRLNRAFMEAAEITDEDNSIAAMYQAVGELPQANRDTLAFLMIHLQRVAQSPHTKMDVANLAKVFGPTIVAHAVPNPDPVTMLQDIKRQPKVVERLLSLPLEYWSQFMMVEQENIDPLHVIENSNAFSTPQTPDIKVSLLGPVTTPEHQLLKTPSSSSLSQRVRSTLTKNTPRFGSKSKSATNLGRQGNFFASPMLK

Protein skinhead-1 = molecular target: T3, Protein skinhead-1 (Caenorhabditis elegans, UniProt P34707); type: functional
T3 sequence (P34707 whole entry): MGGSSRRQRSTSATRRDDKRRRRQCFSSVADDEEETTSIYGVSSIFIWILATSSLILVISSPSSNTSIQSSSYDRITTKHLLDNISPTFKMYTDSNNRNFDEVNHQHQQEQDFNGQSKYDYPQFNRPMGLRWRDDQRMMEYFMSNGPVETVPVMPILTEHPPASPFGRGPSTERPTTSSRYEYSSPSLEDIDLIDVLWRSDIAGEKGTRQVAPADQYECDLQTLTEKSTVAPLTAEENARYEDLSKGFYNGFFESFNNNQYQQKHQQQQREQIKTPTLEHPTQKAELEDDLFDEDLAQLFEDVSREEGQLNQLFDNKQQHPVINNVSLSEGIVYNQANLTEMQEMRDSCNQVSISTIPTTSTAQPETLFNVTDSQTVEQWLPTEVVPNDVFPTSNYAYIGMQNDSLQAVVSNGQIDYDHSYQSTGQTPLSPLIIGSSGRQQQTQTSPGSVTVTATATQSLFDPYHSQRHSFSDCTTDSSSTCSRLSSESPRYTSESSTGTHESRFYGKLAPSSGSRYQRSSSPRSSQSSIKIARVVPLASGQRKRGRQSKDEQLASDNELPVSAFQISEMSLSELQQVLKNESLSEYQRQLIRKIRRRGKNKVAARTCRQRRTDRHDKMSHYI

[13] = THP-1 cell cytotoxicity, dose response, cytotoxicity control for Vif-APOBEC3G degradation inhibitor project, THP-1 cells (AID 1117359); type: functional; conditions: Human immunodeficiency virus 1, THP-1
[14] = molecular target: Glutathione-S-transferase (Schistosoma japonicum, UniProt Q26513); assay: biotin-GST/anti-GST TR-FRET signal inhibitors, dose response, artefact control for Vif-APOBEC3G degradation inhibitor project, biochemical (AID 1117362); type: functional
[15] = HeLa cell cytotoxicity, dose response, cytotoxicity control for MgcRacGAP inhibitor project (AID 624300); type: functional

Sequence of Bifunctional protein GlmU (P9WMN3 whole entry): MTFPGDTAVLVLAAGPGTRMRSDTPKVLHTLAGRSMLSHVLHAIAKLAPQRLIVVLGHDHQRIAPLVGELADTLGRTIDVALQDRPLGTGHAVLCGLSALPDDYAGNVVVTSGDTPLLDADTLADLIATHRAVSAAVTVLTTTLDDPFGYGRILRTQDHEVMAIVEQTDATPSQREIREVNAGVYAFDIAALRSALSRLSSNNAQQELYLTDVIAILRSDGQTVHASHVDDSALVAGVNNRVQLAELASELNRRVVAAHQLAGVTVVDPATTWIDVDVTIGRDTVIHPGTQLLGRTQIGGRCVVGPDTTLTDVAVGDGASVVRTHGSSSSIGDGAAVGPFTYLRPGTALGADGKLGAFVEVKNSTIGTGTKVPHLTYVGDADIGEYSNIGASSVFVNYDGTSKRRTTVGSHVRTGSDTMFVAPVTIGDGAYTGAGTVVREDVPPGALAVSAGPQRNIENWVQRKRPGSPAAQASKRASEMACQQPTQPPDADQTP
Sequence of Large T antigen (P03070 whole entry): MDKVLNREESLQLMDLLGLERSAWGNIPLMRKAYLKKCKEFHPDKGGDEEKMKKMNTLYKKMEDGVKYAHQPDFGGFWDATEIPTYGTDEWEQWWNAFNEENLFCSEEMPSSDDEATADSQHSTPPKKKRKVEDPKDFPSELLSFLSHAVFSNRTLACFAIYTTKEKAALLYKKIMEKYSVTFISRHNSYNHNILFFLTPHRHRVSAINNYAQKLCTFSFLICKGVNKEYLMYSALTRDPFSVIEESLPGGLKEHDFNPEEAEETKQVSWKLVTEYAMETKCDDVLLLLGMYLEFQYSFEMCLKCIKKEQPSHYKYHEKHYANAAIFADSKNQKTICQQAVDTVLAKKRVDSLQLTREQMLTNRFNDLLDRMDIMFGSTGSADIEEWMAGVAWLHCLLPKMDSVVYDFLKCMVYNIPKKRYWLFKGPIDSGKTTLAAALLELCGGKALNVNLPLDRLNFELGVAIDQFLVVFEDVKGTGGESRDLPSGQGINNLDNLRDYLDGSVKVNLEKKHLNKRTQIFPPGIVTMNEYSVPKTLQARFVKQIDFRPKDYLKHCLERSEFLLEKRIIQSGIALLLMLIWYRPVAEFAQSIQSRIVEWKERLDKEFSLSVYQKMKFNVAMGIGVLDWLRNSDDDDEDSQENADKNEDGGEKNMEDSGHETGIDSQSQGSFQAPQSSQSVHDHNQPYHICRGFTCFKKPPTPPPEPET
Sequence of Beta-galactosidase (Q8VNN2 whole entry): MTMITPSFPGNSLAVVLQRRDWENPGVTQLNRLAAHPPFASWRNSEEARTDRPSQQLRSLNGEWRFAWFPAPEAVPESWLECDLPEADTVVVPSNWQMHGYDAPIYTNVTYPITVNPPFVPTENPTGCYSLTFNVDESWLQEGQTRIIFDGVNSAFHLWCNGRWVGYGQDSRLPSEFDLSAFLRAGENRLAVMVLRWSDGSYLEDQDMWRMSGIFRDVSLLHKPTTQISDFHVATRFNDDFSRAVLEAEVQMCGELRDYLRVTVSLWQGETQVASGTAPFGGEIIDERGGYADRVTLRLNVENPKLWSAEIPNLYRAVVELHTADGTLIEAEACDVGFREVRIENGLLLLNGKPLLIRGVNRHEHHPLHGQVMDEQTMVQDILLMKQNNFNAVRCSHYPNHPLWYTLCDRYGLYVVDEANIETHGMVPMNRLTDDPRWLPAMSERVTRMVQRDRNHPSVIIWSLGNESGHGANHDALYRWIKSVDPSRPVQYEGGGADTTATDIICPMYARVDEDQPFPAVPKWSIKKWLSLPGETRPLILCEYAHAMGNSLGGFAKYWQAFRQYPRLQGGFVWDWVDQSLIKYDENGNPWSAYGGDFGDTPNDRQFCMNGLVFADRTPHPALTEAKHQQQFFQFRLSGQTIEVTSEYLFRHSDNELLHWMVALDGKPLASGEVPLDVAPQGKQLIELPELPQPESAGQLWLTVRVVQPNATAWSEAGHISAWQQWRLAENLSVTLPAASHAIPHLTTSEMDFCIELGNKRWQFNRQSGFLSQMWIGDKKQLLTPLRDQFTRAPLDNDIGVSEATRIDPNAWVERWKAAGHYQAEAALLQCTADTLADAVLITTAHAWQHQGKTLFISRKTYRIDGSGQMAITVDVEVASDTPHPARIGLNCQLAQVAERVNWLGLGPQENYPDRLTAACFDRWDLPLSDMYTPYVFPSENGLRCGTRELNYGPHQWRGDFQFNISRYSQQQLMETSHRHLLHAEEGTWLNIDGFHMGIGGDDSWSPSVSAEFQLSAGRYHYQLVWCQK
Sequence of Protein Tat (P04608 whole entry): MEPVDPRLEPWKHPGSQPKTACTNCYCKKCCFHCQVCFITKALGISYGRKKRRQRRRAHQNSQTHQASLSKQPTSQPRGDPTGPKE
Sequence of Glucose-6-phosphate 1-dehydrogenase (P11413 whole entry): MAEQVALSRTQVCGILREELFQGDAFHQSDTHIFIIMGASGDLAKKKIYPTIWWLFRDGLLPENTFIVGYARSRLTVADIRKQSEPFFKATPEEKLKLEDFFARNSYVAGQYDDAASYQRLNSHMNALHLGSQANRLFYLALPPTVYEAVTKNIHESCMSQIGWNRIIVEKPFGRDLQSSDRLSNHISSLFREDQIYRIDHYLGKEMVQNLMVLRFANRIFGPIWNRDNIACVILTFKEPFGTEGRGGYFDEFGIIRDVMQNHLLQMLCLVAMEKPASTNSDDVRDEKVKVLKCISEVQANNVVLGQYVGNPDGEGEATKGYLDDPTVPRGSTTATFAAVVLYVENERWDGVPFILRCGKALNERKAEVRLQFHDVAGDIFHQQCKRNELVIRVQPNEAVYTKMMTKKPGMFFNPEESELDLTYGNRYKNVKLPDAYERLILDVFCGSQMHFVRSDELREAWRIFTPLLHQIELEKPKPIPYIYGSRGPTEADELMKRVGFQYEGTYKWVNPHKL
Sequence of Glutathione-S-transferase (Q26513 whole entry): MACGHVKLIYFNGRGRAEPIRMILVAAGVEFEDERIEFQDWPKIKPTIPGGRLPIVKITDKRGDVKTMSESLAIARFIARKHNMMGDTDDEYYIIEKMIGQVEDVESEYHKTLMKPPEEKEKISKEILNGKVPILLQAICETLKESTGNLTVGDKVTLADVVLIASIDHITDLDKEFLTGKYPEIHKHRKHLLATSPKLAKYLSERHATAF
Sequence of Nonstructural protein 1 (Q194T2 whole entry): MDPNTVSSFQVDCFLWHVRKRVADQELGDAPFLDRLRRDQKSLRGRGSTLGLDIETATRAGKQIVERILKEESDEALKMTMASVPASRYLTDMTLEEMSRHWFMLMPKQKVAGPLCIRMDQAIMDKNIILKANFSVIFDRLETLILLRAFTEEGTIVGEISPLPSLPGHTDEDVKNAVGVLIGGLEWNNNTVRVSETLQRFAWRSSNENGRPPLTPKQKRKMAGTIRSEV

**Q.** For `CCN(CC)C(=S)SSC(=S)N(CC)CC`, which EC50 (Beta-galactosidase) is on record?
**A.** Its EC50 is > 40 µM (inactive).

**Q.** What about the EC50 [1] of the same compound?
**A.** The EC50 was 0.087 µM (active).

**Q.** And the AC50 [2]?
**A.** The AC50 was 5.18 µM (active).

**Q.** What about the EC50 [3] of the same compound?
**A.** The EC50 was 0.091 µM (active).

**Q.** And the IC50 [4]?
**A.** Its IC50 is > 80 µM (inactive).

**Q.** What about the IC50 [5] of the same compound?
**A.** Its IC50 is 85 µM (active).

**Q.** And the IC50 (Large T antigen)?
**A.** Its IC50 is 10.7 µM (active).

**Q.** What about the CC50 (Vero) of the same compound?
**A.** The CC50 was > 25 µM (active).

**Q.** What about the EC50 [6] of the same compound?
**A.** Its EC50 is 2.43 µM (active).

**Q.** What about the EC50 [7] of the same compound?
**A.** Its EC50 is > 160 µM (inconclusive).

**Q.** What about the IC50 [8] of the same compound?
**A.** Its IC50 is 6.64 µM (active).

**Q.** Which IC50 [9] does the source give for `COc1cc2nc(N3CCN(C(=O)C4COc5ccccc5O4)CC3)nc(N)c2cc1OC` (stereo not drawn) [DOXAZOSIN MESYLATE] here?
**A.** Its IC50 is 10.7 µM (inactive).

**Q.** What about the IC50 [10] of the same compound?
**A.** The IC50 was > 40 µM (inactive).

**Q.** Which results are given for `CCOC(=O)c1ccccc1O` [ETHYL SALICYLATE]?
**A.** IC50 [11]: > 33.3 µM (inactive); IC50 [9]: > 40 µM (inactive); IC50 [10]: > 40 µM (inactive)

**Q.** With `N=C1C=CC(=C(c2ccc(N)cc2)c2ccc(N)cc2)C=C1` [PARAROSANILINE] as the compound, how does the IC50 (Nonstructural protein 1) read?
**A.** Its IC50 is 6.87 µM (active).

**Q.** What about the IC50 (Protein Tat) of the same compound?
**A.** Its IC50 is > 100 µM (active).

**Q.** What about the IC50 [12] of the same compound?
**A.** Its IC50 is 98 µM (active).

**Q.** And the IC50 (Protein skinhead-1)?
**A.** Its IC50 is 13.4 µM (active).

**Q.** What about the CC50 [13] of the same compound?
**A.** The CC50 was 7.58 µM (active).

**Q.** What about the IC50 [14] of the same compound?
**A.** The IC50 was 4.08 µM (active).

**Q.** And the CC50 [15]?
**A.** The CC50 was 50.3 µM (active).
